Results reported in patent publication US20110178092A1, “HIV-1 Protease Inhibitors” (priority 2005, published 2011).

The compounds below were run against T1, wild type HIV-1 protease (Q7K) (Human immunodeficiency virus type 1 group M subtype B, UniProt P04585, Q495K) (assay: FRET HIV-1 protease inhibition assay, wild type). Settings: not given.
T1 construct: Wide type HIV-1 protease (Q7K)
Format: biochemical
Description: Biological Evaluation of Selected Compounds of the Invention. HIV protease inhibitor activities were determined by fluorescence resonance energy transfer (FRET) method. […] Inhibitor binding dissociation constant (Ki value) was obtained by nonlinear regression fitting to the plot of initial velocity as a function of inhibitor concentration based on Morrison equation.
The energy transfer donor (EDANS) and acceptor (DABCYL) were labeled at its two ends respectively to perform FRET. Fluorescence measurements were carried out on PTI fluorescence spectrophotometer (Photon Technology International) at 30° C. Excitation and emission wavelengths were set at 340 nm and 490 nm, respectively. Each reaction was recorded for about 10 min. Wide type HIV-1 protease (Q7K) and its MDR mutants M1 (L10I, G48V, I54V, L63P, V82A), M2 (D30N, L63P, N88D), and M3 (L10I, L63P, A71V, G73S, I84V, L90M) were desalted through PD-10 columns (Amersham Biosciences). Sodium Acetate (20 mM, pH 5) was used as elution buffer. Apparent protease concentrations were around 50 nM estimated by UV spectrophotometer (Shimadzu) at 280 nm. All inhibitors were dissolved in DMSO and diluted to appropriate concentrations. Protease (2 μL) and inhibitor (2 μL) or DMSO were mixed and incubated for 20-30 min at room temperature before initialing substrate cleavage reaction. Throughout this work, 150 μL of 1 μM substrate was used. Substrate buffer is composite of 0.1 M sodium acetate, 1 M sodium chloride, 1 mM ethylenediaminetetraacetic acid (EDTA), 1 mM dithiothreitol (DTT), 2% dimethylsulfoxide (DMSO) and 1 mg/mL bovine serum albumin (BSA) with an adjusted pH 4.7. Inhibitor binding dissociation constant (Ki) was obtained by nonlinear regression fitting (GraFit 5, Erithacus software) to the plot of initial velocity as a function of inhibitor concentrations based on Morrison equation.

SMILES | Ki [nM]
CC(=O)c1cccc(N2C[C@@H](C(=O)N[C@@H](Cc3ccccc3)[C@H](O)CN(CC(C)C)S(=O)(=O)c3ccc4c(c3)OCO4)OC2=O)c1 [26e, (5S)-3-(3-Acetylphenyl)-N-[(1S,2R)-3-[[(benzo-[1,3]-dioxole-5-sulfonyl)](isobutyl)amino]-1-benzyl-2-hydroxypropyl]-2-oxo-oxazolidine-S-carboxamide] | 0.006
CC(=O)c1cccc(N2C[C@@H](C(=O)N[C@@H](Cc3ccccc3)[C@H](O)CN(CC(C)C)S(=O)(=O)c3ccc(N)cc3)OC2=O)c1 [25e, (5S)-3-(3-Acetylphenyl)-N-[(1S,2R)-3-[[(4-aminophenyl)sulfonyl](isobutyl)amino]-1-benzyl-2-hydroxypropyl]-2-oxo-oxazolidine-S-carboxamide] | 0.032
COc1ccc(S(=O)(=O)N(CC(C)C)C[C@@H](O)[C@H](Cc2ccccc2)NC(=O)[C@H]2CN(c3ccccc3)C(=O)O2)cc1 [20a, (5R)—N-[(1S,2R)-1-Benzyl-2-hydroxy-3-[isobutyl[(4-methoxyphenyl)sulfonyl]amino]-propyl]-2-oxo-3-phenyloxazolidine-S-carboxamide] | 10.7
COc1ccc(S(=O)(=O)N(CC(C)C)C[C@@H](O)[C@H](Cc2ccccc2)NC(=O)[C@@H]2CN(c3cccc(F)c3)C(=O)O2)cc1 [21b, (5S)—N-[(1S,2R)-1-Benzyl-2-hydroxy-3-[isobutyl[(4-methoxyphenyl)sulfonyl]amino]-propyl]-3-(3-fluorophenyl)-2-oxo-oxazolidine-S-carboxamide] | 0.08
COc1ccc(S(=O)(=O)N(CC(C)C)C[C@@H](O)[C@H](Cc2ccccc2)NC(=O)[C@@H]2CN(c3cccc(OC)c3)C(=O)O2)cc1 [21g, (5S)—N-[(1S,2R)-1-Benzyl-2-hydroxy-3-[isobutyl[(4-methoxyphenyl)sulfonyl]-amino]propyl]-3-(3-methoxyphenyl)-2-oxo-oxazolidine-S-carboxamide] | 0.045
CC(C)CN(C[C@@H](O)[C@H](Cc1ccccc1)NC(=O)[C@H]1CN(c2ccccc2)C(=O)O1)S(=O)(=O)c1ccc(N)cc1 [24a, (5R)—N-[(1S,2R)-3-[[(4-Aminophenyl)sulfonyl](isobutyl)amino]-1-benzyl-2-hydroxypropyl]-2-oxo-3-phenyloxazolidine-S-carboxamide] | 37.4

Same assay, conditions: cyclopropylmethyl at P1' vs isobutyl analog, wild type

SMILES | fold higher Ki than the corresponding inhibitor with isobutyl group at P1'
COc1cccc(S(=O)(=O)N(CC2CC2)C[C@@H](O)[C@H](Cc2ccccc2)NC(=O)[C@@H]2CN(c3cccc(F)c3)C(=O)O2)c1 [36b, (5S)—N-[(1S,2R)-1-Benzyl-3-[(cyclopropylmethyl)[(3-methoxyphenyl)sulfonyl]amino]-2-hydroxypropyl]-3-(3-fluorophenyl)-2-oxo-oxazolidine-S-carboxamide] | about 3 fold
COc1cccc(S(=O)(=O)N(CC2CC2)C[C@@H](O)[C@H](Cc2ccccc2)NC(=O)[C@@H]2CN(c3ccc(C(C)=O)cc3)C(=O)O2)c1 [36f, (5S)-3-(4-Acetylphenyl)-N-[(1S,2R)-1-Benzyl-3-[(cyclopropylmethyl)[(3-methoxy-phenyl)sulfonyl]amino]-2-hydroxypropyl]-2-oxo-oxazolidine-S-carboxamide] | ~200 fold
COc1cccc(S(=O)(=O)N(CC2CC2)C[C@@H](O)[C@H](Cc2ccccc2)NC(=O)[C@@H]2CN(c3ccc(F)c(F)c3)C(=O)O2)c1 [36c, (5S)—N-[(1S,2R)-1-Benzyl-3-[(cyclopropylmethyl)[(3-methoxyphenyl)sulfonyl]amino]-2-hydroxypropyl]-3-(3,4-difluorophenyl)-2-oxo-oxazolidine-S-carboxamide] | ~9 fold

Same assay, conditions: wild type HIV-1 protease (Q7K), FRET, in triplicate; read-out: Ki

SMILES | Ki [nM]
COc1ccc(S(=O)(=O)N(CC(C)C)C[C@@H](O)[C@H](Cc2ccccc2)NC(=O)[C@@H]2CN(c3ccc(C(C)=O)cc3)C(=O)O2)cc1F [27f, (S)-3-(4-Acetylphenyl)-N-[(1S,2R)-1-Benzyl-3-[[(3-fluoro-4-methoxyphenyl)-sulfonyl](isobutyl)amino]-2-hydroxypropyl]-2-oxo-oxazolidine-S-carboxamide] | 0.08
COc1ccc(S(=O)(=O)N(CC(C)C)C[C@@H](O)[C@H](Cc2ccccc2)NC(=O)[C@@H]2CN(c3ccccc3)C(=O)O2)cc1 [21a, (5S)—N-[(1S,2R)-1-Benzyl-2-hydroxy-3-[isobutyl[(4-methoxyphenyl)sulfonyl]amino]propyl]-2-oxo-3-phenyloxazolidine-S-carboxamide] | 0.1
COc1ccc(S(=O)(=O)N(CC(C)C)C[C@@H](O)[C@H](Cc2ccccc2)NC(=O)[C@@H]2CN(c3cccc(C(F)(F)F)c3)C(=O)O2)cc1F [27d, (5S)—N-[(1S,2R)-1-Benzyl-3-[[(3-fluoro-4-methoxyphenyl)sulfonyl](isobutyl)amino]-2-hydroxypropyl]-2-oxo-3-[(3-trifluoromethyl)phenyl)oxazolidine-S-carboxamide] | 0.072
COc1cccc(S(=O)(=O)N(CC2CC2)C[C@@H](O)[C@H](Cc2ccccc2)NC(=O)[C@@H]2CN(c3cccc(F)c3)C(=O)O2)c1 [36b, (5S)—N-[(1S,2R)-1-Benzyl-3-[(cyclopropylmethyl)[(3-methoxyphenyl)sulfonyl]amino]-2-hydroxypropyl]-3-(3-fluorophenyl)-2-oxo-oxazolidine-S-carboxamide] | 0.257
COc1cccc(S(=O)(=O)N(CC2CC2)C[C@@H](O)[C@H](Cc2ccccc2)NC(=O)[C@@H]2CN(c3ccc(C(C)=O)cc3)C(=O)O2)c1 [36f, (5S)-3-(4-Acetylphenyl)-N-[(1S,2R)-1-Benzyl-3-[(cyclopropylmethyl)[(3-methoxy-phenyl)sulfonyl]amino]-2-hydroxypropyl]-2-oxo-oxazolidine-S-carboxamide] | 0.08
CC(C)CN(C[C@@H](O)[C@H](Cc1ccccc1)NC(=O)[C@@H]1CN(c2cccc(C(F)(F)F)c2)C(=O)O1)S(=O)(=O)c1ccc(N)cc1 [25d, (5S)—N-[(1S,2R)-3-[[(4-Aminophenyl)sulfonyl](isobutyl)amino]-1-benzyl-2-hydroxypropyl]-2-oxo-3-[(3-trifluoromethyl)phenyl]oxazolidine-S-carboxamide] | 0.042
COc1cccc(S(=O)(=O)N(CC2CC2)C[C@@H](O)[C@H](Cc2ccccc2)NC(=O)[C@@H]2CN(c3ccc(F)c(F)c3)C(=O)O2)c1 [36c, (5S)—N-[(1S,2R)-1-Benzyl-3-[(cyclopropylmethyl)[(3-methoxyphenyl)sulfonyl]amino]-2-hydroxypropyl]-3-(3,4-difluorophenyl)-2-oxo-oxazolidine-S-carboxamide] | 0.58
CC(=O)c1ccc(N2C[C@@H](C(=O)N[C@@H](Cc3ccccc3)[C@H](O)CN(CC(C)C)S(=O)(=O)c3ccc4c(c3)OCO4)OC2=O)cc1 [26f, (5S)-3-(4-Acetylphenyl)-N-[(1S,2R)-3-[[(benzo-[1,3]-dioxole-S-sulfonyl)](isobutyl)-amino]-1-benzyl-2-hydroxypropyl]-2-oxo-oxazolidine-S-carboxamide] | 0.016
COc1ccc(S(=O)(=O)N(CC(C)C)C[C@@H](O)[C@H](Cc2ccccc2)NC(=O)[C@@H]2CN(c3ccc(F)c(F)c3)C(=O)O2)cc1F [27c, (5S)—N-[(1S,2R)-1-Benzyl-3-[[(3-fluoro-4-methoxyphenyl)sulfonyl](isobutyl)amino]-2-hydroxypropyl]-3-(3,4-difluorophenyl)-2-oxo-oxazolidine-S-carboxamide] | 0.343
CC(C)CN(C[C@@H](O)[C@H](Cc1ccccc1)NC(=O)[C@@H]1CN(c2cccc(C(F)(F)F)c2)C(=O)O1)S(=O)(=O)c1ccc2c(c1)OCO2 [26d, (5S)—N-[(1S,2R)-3-[[(Benzo-[1,3]-dioxole-S-sulfonyl)](isobutyl)amino]-1-benzyl-2-hydroxypropyl]-2-oxo-3-[(3-trifluoromethyl)phenyl]oxazolidine-S-carboxamide] | 0.016
CC(C)CN(C[C@@H](O)[C@H](Cc1ccccc1)NC(=O)[C@@H]1CN(c2ccccc2)C(=O)O1)S(=O)(=O)c1ccc(N)cc1 [25a, (5S)—N-[(1S,2R)-3-[[(4-Aminophenyl)sulfonyl](isobutyl)amino]-1-benzyl-2-hydroxypropyl]-2-oxo-3-phenyloxazolidine-S-carboxamide] | 0.53

Same assay, conditions: wild type HIV-1 protease, qualitative statement

SMILES | inhibitory activity against wild type HIV-1 protease (in words)
COc1cccc(S(=O)(=O)N(CC(C)C)C[C@@H](O)[C@H](Cc2ccccc2)NC(=O)[C@@H]2CN(c3ccccc3)C(=O)O2)c1 [29a, (5S)—N-[(1S,2R)-1-Benzyl-2-hydroxy-3-[isobutyl[(3-methoxyphenyl)sulfonyl]amino]-propyl]-2-oxo-3-phenyloxazolidine-S-carboxamide] | significant loss of protease inhibitory activity
COc1cccc(S(=O)(=O)N(CC(C)C)C[C@@H](O)[C@H](Cc2ccccc2)NC(=O)[C@@H]2CN(c3ccc(C(C)=O)cc3)C(=O)O2)c1 [29f, (5S)-3-(4-Acetylphenyl)-N-[(1S,2R)-1-benzyl-2-hydroxy-3-[isobutyl[(3-methoxyphenyl)-sulfonyl]amino]propyl]-2-oxo-oxazolidine-S-carboxamide] | significant loss of protease inhibitory activity
CC(C)CN(C[C@@H](O)[C@H](Cc1ccccc1)NC(=O)[C@@H]1CN(c2ccc(F)c(F)c2)C(=O)O1)S(=O)(=O)c1ccc(N)cc1 [25c, (5S)—N-[(1S,2R)-3-[[(4-Aminophenyl)sulfonyl](isobutyl)amino]-1-benzyl-2-hydroxypropyl]-3-(3,4-difluorophenyl)-2-oxo-oxazolidine-S-carboxamide] | relatively small improvement in activities compared to 25a
CC(C)CN(C[C@@H](O)[C@H](Cc1ccccc1)NC(=O)[C@@H]1CN(c2cccc(F)c2)C(=O)O1)S(=O)(=O)c1ccc(N)cc1 [25b, (5S)—N-[(1S,2R)-3-[[(4-Aminophenyl)sulfonyl](isobutyl)amino]-1-benzyl-2-hydroxypropyl]-3-(3-fluorophenyl)-2-oxo-oxazolidine-S-carboxamide] | relatively small improvement in activities compared to 25a
CC(C)CN(C[C@@H](O)[C@H](Cc1ccccc1)NC(=O)O[C@H]1CCOC1)S(=O)(=O)c1ccc(N)cc1 [amprenavir, reference compound] | Ki value for wild type is also relatively high
